Data as given in patent US6699459B2, “Methods of treating lung inflammation” (The Board of Regents of the University of Texas System, priority 2001, dated 2004).
“Also recorded” adds a separate entry of the source.

Columns and labels:
β-actin = β-actin mRNA (Northern blot) in A549 cells; assay type: cell-based, human; details: 400 μM, compared to untreated cells
Method: Northern Blot. Total RNA was extracted from control and infected A549 cells by the acid guanidium thiocyanate-phenol chloroform method (18). Twenty micrograms of RNA were fractionated on a 1.2% agarose-formaldehyde gel, transferred to nylon membranes and hybridized to a radiolabeled RANTES, IRF-1, -3 and -7 cDNAs, as previously described (19). Hybridization temperature for all probes was 55° C. After washing, membranes were exposed for autoradiography using Kodak XAR film at −70° C. using intensifying screens. After exposure, membranes were stripped and rehybridized with a β-actin probe.

human RANTES promoter = assay: RANTES promoter luciferase reporter in RSV-infected A549 cells; assay type: cell-based; details: RSV 24 hours, 400 μM
Source text: Plasmid construction and cell transfection. A fragment of the human RANTES promoter spanning from −220 to +55 nucleotides (nt), relative to the mRNA start site designated +1 was cloned into the luciferase reporter gene vector pGL2 (Promega, Madison, Wis.) and defined as pGL2-220. Site mutations of the RANTES ISRE in the context of pGL2-220 plasmid were introduced by PCR using the following upstream and downstream mutagenic primers (mutations in lower cases): […]
Logarithmically growing A549 cells were transfected in triplicate in 60 mm petri dishes by DEAE-Dextran, as previously described (20). Cells were incubated in 2 ml of HEPES buffered Dulbecco's modified Eagle's medium (DMEM) (10 mM Hepes, pH 7.4) containing 20 μl of 60 mg/ml DEAE-Dextran (Amersham Pharmacia Biotec, Arlington Heights, Ill.) premixed with 6 μg of RANTES-pGL2 plasmids and 1 μg cytomegalovirus (CMV)-β galactosidase internal control plasmid. After 3 hours, media was removed and 0.5 ml of 10% (v/v) DMSO in phosphate buffered saline (PBS) was added to the cells for 2 minutes. Cells were washed with PBS and cultured overnight in 10% FBS/DMEM. The next morning, cells were infected with RSV and at 24 hours post-infection cells were lysed to measure independently luciferase and β-galactosidase reporter activity, as previously described (20). Luciferase was normalized to the internal control β-galactosidase activity. […]

RANTES = assay: RSV-induced RANTES secretion in A549 cells (ELISA); assay type: cell-based, human; details: A549 cells
Method: Cell culture and infection of epithelial cells with RSV. A549, human alveolar type II-like epithelial cells (ATCC, Manassas, Va.), were maintained in F12K medium containing 10% (v/v) fetal bovine serum (FBS), 10 mM glutamine, 100 IU/ml penicillin and 100 μg/ml streptomycin. Small alveolar epithelial cells (SAE) were obtained from Clonetics (San Diego, Calif.) and grown according to the company instructions. Cell monolayers were infected with RSV at multiplicity of infection (MOI) of 1 (unless otherwise stated), as described (17). An equivalent amount of a 20% sucrose solution was added to uninfected A549 cells, as a control. For the antioxidant experiments, cells were pretreated with the antioxidants for one hour and then infected in the presence of the antioxidants. Since BHA was diluted in ethanol, equal amounts of ethanol were added to untreated cells, as a control. Total number of cells, cell viability and viral replication, following antioxidant treatment, were measured by trypan blue exclusion and by plaque assay, respectively. RANTES ELISA. Immunoreactive RANTES was quantitated by a double antibody ELISA kit (DuoSet, R&D Systems, Minneapolis, Minn.) following the manufacturer's protocol.

IRF-1 GAS = assay: EMSA of IRF-1 GAS binding complexes, nuclear extracts of RSV-infected A549 cells; assay type: cell-based, human; details: RSV 6 hours, 400 μM
Method: (§1) Electrophoretic mobility shift assay (EMSA): Nuclear extracts of uninfected and infected A549 cells were prepared using hypotonic/nonionic detergent lysis, as previously described (20). Proteins were normalized by protein assay (Protein Reagent, Bio-Rad, Hercules, Calif.) and used to bind to a duplex oligonucleotide corresponding to the IRF-1 gamma interferon activated sequence (GAS) and IRF-7 ISRE, whose sequences are shown below.
(§2) DNA-binding reactions contained 10-15 μg nuclear proteins, 5% glycerol, 12 mM HEPES, 80 mM NaCl, 5 mM DTT, 5 mM Mg2Cl, 0.5 mM EDTA, 1 μg of poly dI-dC and 40,000 cpm of ^32P-labeled double-stranded oligonucleotide in a total volume of 20 μl. The nuclear proteins were incubated with the probe for 15 minutes at room temperature and then fractionated by 4% nondenaturing polyacrylamide gels (PAGE) in 0.5× TBE buffer (22 mM Tris-HCl, 22 mM boric acid, 0.25 MM EDTA, pH 8), at 120 volts. After electrophoretic separation, gels were dried and exposed for autoradiography using Kodak XAR film at −70° C. using intensifying screens. In the gel mobility supershift, commercial antibodies against specific transcription factors were added to the binding reactions and incubated on ice for one hour prior to fractionation on 6% PAGE.

IRF-1 = assay: Western blot of IRF-1 in total cell lysates of RSV-infected A549 cells; assay type: cell-based, human; details: whole cell extracts, RSV 12 hours, 400 μM
Method: (§3) Western Immunoblot. Total cell lysates and cytoplasmic and nuclear proteins were prepared as previously described, fractionated by SDS-PAGE and transferred to PVDF membrane (20). Membranes were blocked with 5% albumin in TBS-Tween and incubated overnight with a rabbit polyclonal antibody to IRF-1, -3 and -7 (Santa Cruz Biotech, Santa Cruz, Calif.). For secondary detection, a horseradish-coupled anti-rabbit or anti-mouse antibody was used in the enhanced chemiluminescence assay (Amersham Pharmacia Biotec, Arlington Heights, Ill.).

IRF-3 = assay: Western blot of IRF-3 in total cell lysates of RSV-infected A549 cells; assay type: cell-based, human; details: whole cell extracts, RSV 12 hours, 400 μM
Method: as §3

IRF-7 ISRE = assay: EMSA of IRF-7 ISRE binding complexes, nuclear extracts of RSV-infected A549 cells; assay type: cell-based, human; details: all time points, 400 μM
Method: as §1, §2

SMILES: COc1ccc(O)c(C(C)(C)C)c1 [BHA, butylated hydroxyanisol]
- levels of the housekeeping gene β-actin (β-actin): does not affect; also recorded: not systematically reduced
- RSV-induced luciferase activity (RANTES promoter) (human RANTES promoter): almost completely abolished
- effectiveness in reducing RSV-induced RANTES secretion, compared among the antioxidants (RANTES): most effective
- RSV-induced RANTES production (RANTES; 400 μM, 24 hours, ELISA): significantly block
- RSV-induced STAT binding to the IRF-1 GAS (IRF-1 GAS): completely abolished
- RSV-induced IRF-1 protein synthesis (IRF-1): almost completely abolished
- RSV-induced IRF-3 mobility shift (IRF-3): almost completely abolished
- binding of the RSV-inducible complexes to the IRF-7 ISRE probe (IRF-7 ISRE): greatly reduced
